Calls of active or inactive are those of the source. No cut-off for these calls is given here.
Experiments:
[1] = target: T1, CDGSH iron-sulfur domain-containing protein 2 (Homo sapiens, UniProt Q8N5K1); assay: Binding affinity to recombinant human N-terminal His6-tagged NAF1 expressed in Escherichia coli by scintillation proximity assay
T1 sequence (Q8N5K1 whole entry): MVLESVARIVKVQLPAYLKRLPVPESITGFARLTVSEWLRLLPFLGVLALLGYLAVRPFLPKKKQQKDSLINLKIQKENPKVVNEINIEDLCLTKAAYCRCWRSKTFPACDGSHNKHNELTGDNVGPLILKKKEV

[2] = target: T2, CDGSH iron-sulfur domain-containing protein 2 (Homo sapiens) (UniProt Q8N5K1); assay: Binding affinity to NAF1 (unknown origin) expressed in human HepG2 cells assessed as inhibition of mitochondrial respiration at 30 uM; assay type: cell-based
T2 sequence (whole entry): T1 sequence (Q8N5K1 whole entry)

[3] = target: T2, CDGSH iron-sulfur domain-containing protein 2 (Homo sapiens); assay: Binding affinity to NAF1 in human HepG2 cells assessed as inhibition of mitochondrial respiration at 30 uM; assay type: cell-based
[4] = target: T2, CDGSH iron-sulfur domain-containing protein 2 (Homo sapiens); assay: Binding affinity to NAF1 (unknown origin) expressed in human HepG2 cells assessed as increase in mitochondrial respiration at 30 uM relative to wild-type cells; assay type: cell-based

| Compound | IC50 [1] [µM] | inhibition [2] | inhibition [3] | Activity [4] [%] |
| --- | --- | --- | --- | --- |
| CN(CCOc1ccc(CC2SC(=O)NC2=O)cc1)c1ccccn1 (stereo not given) [ROSIGLITAZONE] | 2.29 | Active | Active | – |
| CC(C)(C)c1cc(CC2SC(=O)N=C2O)cc(C(C)(C)C)c1O (stereo not given) | 29.8 | Active | Active | – |
| CCc1ccc(CCOc2ccc(CC3SC(=O)NC3=O)cc2)nc1 (stereo not given) [PIOGLITAZONE] | 4.8 | Active | Active | 13 |

Source: ChEMBL document CHEMBL4368935, “Binding of thiazolidinediones to the endoplasmic reticulum protein nutrient-deprivation autophagy factor-1” (Bioorg Med Chem Lett, 2019)
